Experimental data reported in ChEMBL document CHEMBL1629502, “Labeling study of avidin by modular method for affinity labeling (MoAL)” (Bioorg Med Chem Lett, 2010).
Activity calls are given as the source filed them. The calls are words filed in the database; no cut-off is given here.

Assays:
[1] = Binding affinity to avidin at 80 uM by UV-vis spectroscopy
[2] = Binding affinity to avidin by UV-vis spectroscopy
[3] = Binding affinity to avidin at 1.6 mM by UV-vis spectroscopy

Compound | Activity [1] | other results
CN(C)CC(=O)OCCCCNC(=O)CCCCCNC(=O)CCCC[C@@H]1SC[C@@H]2NC(=O)N[C@@H]21 | Active | –
CN(C)S(=O)(=O)c1ccc(NCCN)c2nonc12 | – | Activity [2]: Active
COc1nc(Cl)nc(OC)n1 | – | Activity [3]: Active
CN(C)CC(=O)OCCCCCCNC(=O)CCCCCNC(=O)CCCC[C@@H]1SC[C@@H]2NC(=O)N[C@@H]21 | Active | –
CN(C)CC(=O)OCCCCCNC(=O)CCCCCNC(=O)CCCC[C@@H]1SC[C@@H]2NC(=O)N[C@@H]21 | Active | –
O=C(O)CCCC[C@@H]1SC[C@@H]2NC(=O)N[C@@H]21 | – | Ka [2]: 1e+15 M⁻¹
NCCNC(=O)COc1cc(S(=O)(=O)O)c2ccc3c(S(=O)(=O)O)cc(S(=O)(=O)O)c4ccc1c2c43 | – | Activity [3]: Active
CN(C)CC(=O)OCCCCCCCCCCNC(=O)CCCCCNC(=O)CCCC[C@@H]1SC[C@@H]2NC(=O)N[C@@H]21 | Active | –
CN(C)CC(=O)OCCCCCCCCNC(=O)CCCCCNC(=O)CCCC[C@@H]1SC[C@@H]2NC(=O)N[C@@H]21 | Active | –
NCc1ccc(Br)cc1 | – | Activity [2]: Active
